Structures can show the parent of a compound that is named as a salt.
Molecular target: alpha-2-receptor
Experiment: Radioligand binding, alpha-2 adrenoceptor, rat cerebral cortices, [^3 H]-rauwolscine
Details: for Ki: rat cerebral cortices, [^3 H]-rauwolscine; for alpha-2 - Selectivity Ki alpha-1/Ki alpha 2: ratio of Ki alpha-1 to Ki alpha-2
Experimental: The compounds were assessed for alpha-adrenergic receptor subtype selectivity by use of radioligand binding techniques as described previously (DeBernardis et.al. J. Med. Chem. 28, 1398 (1985)).

| Ki [nM] | alpha-2 - Selectivity Ki alpha-1/Ki alpha 2 | Structure (SMILES) |
| --- | --- | --- |
| 5 | 242 | COc1ccc2c(c1)CCCC2CN(C)CCc1cccn1C (stereo not shown) [Example 12, 1-((N-Methylamino)methyl-N-(2-(N-methyl2-pyrrolyl)-ethyl))-6-methoxy tetralin fumarate] |
| 4 | 124 | CN(CCc1cccc(O)c1)CC1CCCc2cc(O)ccc21 (stereo not shown) [Example 82, 1-((N-Methylamino)methyl-N-(2-(m-hydroxyphenyl)ethyl))-6-hydroxy tetralin hydrochloride] |
| 6.5 | 19 | Fc1ccc2c(c1)CCCC2CN1CCC(c2ccccc2)C1 (stereo not shown) [Example 148, 6-Fluoro-1-(3-phenylpyrrolidino-1-methyl) tetralin methanesulfonate] |
| 6 | 233 | CCN(CCc1ccco1)CC1CCCc2cc(OC)ccc21 (stereo not shown) [Example 43, 1-((N-Ethylamino)methyl-N-(2-(2-furyl)ethyl))-6-methoxy tetralin hydrochloride] |
| 6.6 | 159 | CCN(CCc1cccc(F)c1)CC1CCCc2cc(OC)ccc21 (stereo not shown) [Example 42, 1-((N-Ethylamino)methyl-N-(2-(m-fluorophenyl)ethyl))-6-methoxy tetralin hydrochloride] |
| 2.5 | 71 | COc1ccc2c(c1)CCC2CN1CCC(c2cccs2)C1 (stereo not shown) [Example 151, 5-Methoxy1-(3-(2-thienyl)pyrrolidino-1-methyl) indane hydrochloride] |
| 1.6 | 353 | CN(CCc1cccs1)CC1CCCc2cc(O)ccc21 (stereo not shown) [Example 7, 1-((N-Methylamino)methyl-N(2-(2-thienyl)ethyl))-6-hydroxy tetralin hydrochloride] |
| 6.6 | 125 | CCN(CCc1cccs1)CC1CCCc2c1ccc1c2OCCO1 (stereo not shown) [Example 168, 1-((N-Ethylamino)methyl N-(2-(2-thienyl)ethyl))-5,6-ethylenedioxy tetralin hydrochloride] |
| 0.6 | 292 | COc1cc2c(c(OC)c1)C(CN(C)CCc1cccs1)CCC2 (stereo not shown) [Example 26, 1-((N-Methylamino)methyl-N-(2-(2-thienyl)ethyl))-6,8-dimethoxy tetralin hydrochloride] |
| 4.9 | 35 | COc1cccc2c1CCCC2CN1CCC(c2cccs2)C1 (stereo not shown) [Example 146, 5-Methoxy1-(3-(2-thienyl)pyrrolidino-1-methyl) tetralin hydrochloride] |
| 4.8 | 183 | COc1cc2c(cc1F)C(CN(C)CCc1ccco1)CCC2 (stereo not shown) [Example 141, 1-((N-methylamino)methyl-N-(2-(2-furyl)ethyl))-6-methoxy-7-fluoro tetralin methanesulfonate] |
| 3 | 177 | CN(CCc1cccs1)CC1CCCc2c1ccc(O)c2I (stereo not shown) [Example 115, 1-((N-Methylamino)methyl-N-(2-(2-thienyl)ethyl))-5-iodo-6-hydroxy tetralin hydrochloride] |
| 6 | 195 | COc1ccc2c(c1)CCCC2CN(C)CCc1cccc(N)c1 (stereo not shown) [Example 67, 1 ((N-Methylamino)methyl-N-(2-(maminophenyl)ethyl))-6-methoxy tetralin dihydrochloride] |
| 18 | 102 | CCCN(CCc1cccs1)CC1CCCc2cc(OC)ccc21 (stereo not shown) [Example 58, 1-((N propylamino)methyl)-N-(2-(2-thienyl)ethyl))-6-methoxy tetralin hydrochloride] |
| 1.3 | 93 | CN(c1ccc2c(c1)CCCC2CN1CCC(c2ccccc2)C1)S(C)(=O)=O (stereo not shown) [Example 193, 6-(N-methylmethylsulfonamido)-1-(3-(phenylpyrrolidino-1-methyl)tetralin hydrochloride] |
| 6.9 | 95 | COc1ccc(C)c2c1CCCC2CN(C)CCc1cccs1 (stereo not shown) [Example 36, 1-(N-Methylamino)methyl-N-(2-(2-thienyl)ethyl))-5-methoxy-8-methyl tetralin hydrochloride] |
| 5 | 105 | CN(CCc1cccc(F)c1)CC1CCCc2ccccc21 (stereo not shown) [Example 70, 1-((N-Methylamino)methyl-N-(2-(m-fluorophenyl)ethyl))-tetralin hydrochloride] |
| 1.7 | 262 | CN(CCc1cccs1)CC1CCCc2c1ccc1c2OCO1 (stereo not shown) [Example 23, 1-((N-Methylamino)methyl-N-(2-(2-thienyl)ethyl))-5,6-methylenedioxy tetralin hydrochloride] |
| 1.6 | 278 | CN(CCc1cccs1)CC1CCCc2c1ccc(O)c2O (stereo not shown) [Example 87, 1-((N-Methylamino)methyl-N-(2-(2-thienyl)ethyl))-5,6-dihydroxy tetralin hydrochloride] |

| Ki [nM] | alpha-2 - Selectivity Ki alpha-1/Ki alpha 2 | Structure (SMILES) |
| --- | --- | --- |
| 3.5 | 430 | COc1ccc2c(c1)CCCC2CN(C)CCC1CCCS1 (stereo not shown) [Example 6h, 1-((N-methylamino)methyl-N-(2-(2-tetrahydrothienyl)ethyl))-6-methoxy tetralin hydrochloride] |
| 13 | 98 | CCOc1ccc2c(c1)CCCC2CN(C)CCc1cccc(N)c1 (stereo not shown) [Example 69, 1-((N-Methylamino)methyl-N-(2-(m-aminophenyl)ethyl))-6-ethoxy tetralin dihydrochloride] |
| 1.3 | 535 | CN(CCc1cccs1)CC1CCCc2ccccc21 (stereo not shown) [Example 22, 1-((N-Methylamino)methyl-N-(2-(2-thienyl)ethyl)) tetralin hydrochloride] |
| 2 | 263 | COc1ccc2c(c1)C(CN(C)CCc1cccs1)CCC2 (stereo not shown) [Example 27, 1-((N-Methylamino)methyl-N-(2-(2-thienyl)ethyl))-7-methoxy tetralin hydrochloride] |
| 3.7 | 174 | COc1ccc2c(c1)CCC2CN(C)CCc1cccs1 (stereo not shown) [Example 37, 1-((N-Methylamino)methyl-N-(2-(2-thienyl)ethyl))-5-methoxy indane hydrochloride] |
| 3.6 | 55 | CN(CCc1cccs1)CC1CCCc2c(Cl)cccc21 (stereo not shown) [Example 129, 1-((N-Methylamino)methyl-N-(2-(2-thieny)ethyl))-5-chloro tetralin hydrochloride] |
| 6 | 21 | Nc1ccc2c(c1)CCCC2CN1CCC(c2ccccc2)C1 (stereo not shown) [Example 156, 6-Amino-1-(3-phenylpyrrolidino-1-methyl) tetralin dihydrochloride] |
| 1.5 | 173 | CN(CCc1cccc(F)c1)CC1CCCc2c1ccc(O)c2O (stereo not shown) [Example 85, 1-((N-Methylamino)methyl-N-(2-(m-fluorophenyl)ethyl))-5,6-dihydroxy tetralin hydrochloride] |
| 3.7 | 258 | CCN(CCc1cccs1)CC1CCCc2c1ccc1c2OCO1 (stereo not shown) [Example 164, 1-(N-Ethylamino)methyl-N-(2-(2-thienyl)ethyl))-5,6-methylenedioxy tetralin hydrochloride] |
| 1 | 95 | COc1ccc2c(c1)CCCC2CN1CCC(c2ccccc2)C1 (stereo not shown) [Example 121, 6-Methoxy-1-(3-phenylpyrrolidino-1-methyl) tetralin hydrochloride] |
| 3 | 165 | COc1ccc2c(c1OC)CCCC2CN(C)CCc1cccs1 (stereo not shown) [Example 86, 1-((N-Methylamino)methyl-N-(2-(2-thienyl)ethyl))-5,6-dimethoxy tetralin hydrochloride] |
| 8 | 107 | COc1cc2c(cc1C)C(CN(C)CCc1ccco1)CCC2 (stereo not shown) [Example 128, 1-((N-Methylamino)methyl-N-(2-(2-furyl)ethyl))-6-methoxy 7-methyl tetralin hydrochloride] |
| 2 | 158 | CN(CCc1ccccc1)CC1CCCc2ccccc21 (stereo not shown) [Example 88, 1-(N-Methylamino)methyl-N-(2-phenethyl)) tetralin hydrochloride] |
| 1.5 | 333 | COc1ccc2c(c1)CCCC2CN(C)CCc1ccsc1 (stereo not shown) [Example 6d, 1--((N-methylamino)methyl N-(2-(3-thienyl)ethyl))-6-methoxy tetralin hydrochloride] |
| 6 | 196 | CN(CCc1cccc(N)c1)CC1CCCc2cc(O)ccc21 (stereo not shown) [Example 68, 1-((N-Methylamino)methyl N-(2-(m-aminophenyl)ethyl))-6-hydroxy tetralin dihydrobromide] |
| 4.2 | 85 | CN(CCc1cccc(F)c1)CC1CCCc2c1ccc1c2OCCO1 (stereo not shown) [Example 167, 1-((N-Methylamino)methyl N-(2-m-fluorophenethyl))-5,6-ethylenedioxy tetralin methanesulfonate] |
| 5.7 | 127 | CN(CCc1ccccc1)CC1CCCc2cc(N)ccc21 (stereo not shown) [Example 114, 1-((N-Methylaminomethyl-N-(2-phenylethyl))-6-aminotetralindihydrochloride] |
| 8 | 119 | COc1ccc2c(c1)CCCC2CN(C)CCc1cccc(O)c1 (stereo not shown) [Example 83, 1-((N-Methylamino)methyl-N-(2-(m-hydroxyphenyl)ethyl))-6-methoxy tetralin hydrochloride] |

| Structure (SMILES) | Ki [nM] | alpha-2 - Selectivity Ki alpha-1/Ki alpha 2 |
| --- | --- | --- |
| COc1ccc2c(c1)CCCC2CN(C)CCC1CCCC1 (stereo not shown) [Example 6f, 1-((N-methylamino)methyl N-(2-(cyclopentyl)ethyl)) 6-methoxy tetralin hydrochloride] | 6.5 | 332 |

Reference: patent US5140040A, “1-aminomethyl-1,2,3,4-tetrahydronaphthalenes” (Abbott Laboratories, priority 1991, dated 1992)
